Test results as given in patent US7674580B2, “Compositions and methods for the modulation of sphingolipid metabolism and/or signaling” (priority 2002, dated 2010).
Marks after values point to notes of the source that are not given here.

Experiments:
[1] = test system: wildtype cells; test: Sphingosine sensitivity (growth) of wildtype yeast; type: cell-based, S. cerevisiae; conditions: 10 μM sphingosine
Procedure: (§1) A further test for SPL activity may be based upon functional complementation in the bst1Δ strain. It has been found, within the context of the present invention, that bst1Δ cells are highly sensitive to D-erythro-sphingosine.
Functional complementation in yeast: Strains of interest were grown to saturation in liquid culture for 2-3 days. They were then resuspended in minimal medium, placed in the first row of a 96-well plate and diluted serially from 1:2 to 1:4000 across the plate. […] Louis, Mo.). […] At this concentration of NP40, no effects on cell viability are observed. Plates were incubated at 30° C. for two days and assessed visually for differences in growth.

[2] = test system: bst1Δ cells; test: Sphingosine sensitivity (growth) of SPL-deleted yeast; type: cell-based, S. cerevisiae
Description: Within certain embodiments, an in vitro assay for SPL activity may be performed using cellular extracts prepared from cells that express the polypeptide of interest. […] It has been found, within the context of the present invention, that yeast cells containing deletion of the SPL gene (BST1) are suitable for use in evaluating the SPL activity of a polypeptide. bst1Δ cells can be generated from S. cerevisiae using standard techniques, such as PCR, as described herein. […] For such a test, a polypeptide is preferably expressed on a high-copy yeast vector (such as pYES2, which is available from Invitrogen) yielding more than 20 copies of the gene per cell. In general, a polypeptide has SPL activity if, when expressed using such a vector in a bst1Δ cell, a cellular extract results in a two-fold increase in substrate degradation over the level observed for an extract prepared from cells not expressing the polypeptide.
as §1
Functional complementation in yeast: Strains of interest were grown to saturation in liquid culture for 2-3 days. […] Plates were incubated at 30° C. for two days and assessed visually for differences in growth.

[3] = test system: wild type flies; test: LCBP levels in wild type flies grown on sphingosine kinase inhibitor; type: in vivo, Drosophila melanogaster; conditions: wild type flies grown on D,L-threo-DHS
Procedure: (§2) Analysis of Drosophila sphingolipids: 100 mg of flies were homogenized in 6 ml of ice cold methanol/water 1:1 (vol:vol) with a Potter-Elvehjem homogenizer with a loose pestle followed by a tight pestle until the pestle moved smoothly. Extract was further homogenized by tip sonication for 3 times 20 sec. Extract was spun at low speed and supernatant was removed and dried down in speed vac. Extract was resuspended in 500 μl of methanol containing 0.1M ammonium hydroxide and incubated for 1 hour at 37° C. Following incubation the extract was dried down in speed vac. Extract was resuspended in 500 μl of 50% methanol containing 0.1% glacial acetic acid and applied to a C18E STRATA solid phase extraction column. C18E STRATA column was washed with 50% methanol containing 0.1% glacial acetic acid followed by a wash with 100% methanol containing 0.1% glacial acetic acid. Lipids of interest were eluted with methanol/10 mM ammonium acetate, 9:1 (vol:vol). Lipids were dried down in speed vac. and o-pthaladehyde labeled for HPLC analysis as previously described (Kim, S., Fyrst, H. and Saba, J. (2000). Genetics 156, 1519-29.).

[4] = test system: Sply^05091 homozygous flies; test: LCB/LCBP levels in Sply^05091 homozygous flies grown on sphingosine kinase inhibitor (HPLC); type: in vivo, Drosophila melanogaster
Procedure: as §2

[5] = test system: Sply^05091 homozygous flies; test: Adult flight performance of Sply^05091 homozygous flies grown on sphingosine kinase inhibitor; type: in vivo, Drosophila melanogaster
[6] = Sply^05091 homozygous flies + 1 mM D,L-threo-DHS, separate experiment, mixed-age adults

| SMILES | Growth of wildtype cells [1] | Growth of bst1Δ cells ([2]; concentrations as low as 10 μM sphingosine) | Proliferation of dpl1Δ strain ([2]; media containing low concentrations of D-erythro-sphingosine) | LCBP levels, % of normal levels [3] | Reduction of LCBP levels ([4]; Sply^05091 homozygotes grown in the presence of sphingosine kinase inhibitor) | C14/16 LCBPs, percentage of untreated controls [4, 6] | C14/16 LCBs, percentage of untreated controls [4, 6] | Average flight score ([5]; Sply^05091 + 1 mM D,L-threo-DHS, score upward=3, lateral=2, downward=1, flightless=0, ±s.e.m., untreated Sply^05091 0.40 ± 0.036) | Flight performance ([5]; Sply^05091 mutants grown on media supplemented with 10 μM D,L-threo-DHS, F2 progeny) |
| --- | --- | --- | --- | --- | --- | --- | --- | --- | --- |
| CCCCCCCCCCCCC/C=C/[C@@H](O)[C@@H](N)CO [D-erythro-sphingosine] | no effect on the growth | completely inhibit the growth | cannot proliferate | – | – | – | – | – | – |
| CCCCCCCCCCCCCCC[C@H](O)[C@@H](N)CO [D,L-threo-DHS, D,L-threo-dihydrosphingosine] | – | – | – | 20% | approximately 20% | 81%* | 136%* | 0.62 ± 0.057 | slight but significant improvement in flight performance |
